Results published in patent US20220016277A1, “MACROCYCLIC COMPLEXES OF RADIONUCLIDES AND THEIR USE IN RADIOTHERAPY OF CANCER” (Cornell University, priority 2018, published 2022).

Assay: Organ distribution of ^225Ac complexes following intravenous injection in mice
Assay type: in vivo, C57BL/6 mice
Experimental: In Vivo Biodistribution of ^225Ac Complexes of Macropa and DOTA. All experiments were approved by the Institutional Animal Care Committee (IACC) of the University of British Columbia and were performed in accordance with the Canadian Council on Animal Care Guidelines. A total of 9 female C57BL/6 mice (6-8 weeks old, 20-25 g) were used for the biodistribution study of each radiometal complex, n=3 for each time point.
Macropa (100 μL of a 1 mg/mL solution in NH4OAc) was diluted with 387 μL of NH4OAc (1 M, pH 7), and an aliquot (203 μL) of ^225Ac(NO3)3 (˜157 kBq) was then added; the pH of this solution was adjusted to 6.5-7 by the addition of 1 M NaOH (210 μL, trace metal grade). After 5 min at ambient temperature, the reaction solution was analyzed by TLC (0.4 M pH 4 sodium citrate as the eluent), which confirmed >95% radiochemical yield. The reaction was allowed to proceed overnight, and the radiochemical yield was again confirmed to be >95% the following morning. At this time, mice were anesthetized by 2% isoflurane, and approximately 100 μL (10-15 kBq) of the [^225Ac(macropa)]^+ complex were injected into the tail vein of each mouse. After injection, mice were allowed to recover and roam freely in their cages, and were euthanized by CO2 inhalation at 15 min, 1 h, or 5 h (n=3 at each time point) post-injection. Blood was collected by cardiac puncture and placed into an appropriate test tube for scintillation counting. Tissues collected included heart, liver, kidneys, lungs, small intestine, large intestine, brain, bladder, spleen, stomach, pancreas, bone, thyroid, tail, urine, and feces. Tissues were weighed and then counted with a calibrated gamma counter (Packard, Cobra II model 5002) using three energy windows: 60-120 keV (window A), 180-260 keV (window B), and 400-480 keV (window C). Counting was performed both immediately after sacrifice and after 7 days; counts were decay corrected from the time of injection and then converted to the percentage of injected dose (% ID) per gram of tissue (% ID/g). […]
The biodistribution studies of [^225Ac(DOTA)]^− and ^225Ac(NO3)3 were carried out as described above for [^225Ac(macropa)]^+, with the following modifications. [^225Ac(DOTA)^− was prepared by adding ^225Ac(NO3)3 (338 μL, 1.1 MBq) to a solution of DOTA (100 μg, 20 mg/mL in H2O) in NH4OAc (467 μL, 0.15 M, pH 7). The pH of the solution was adjusted to 7 using NH4OAc (150 μL, 1 M, pH 7) and the solution was heated at 85° C. for 45 min. RCY >99% was confirmed by TLC as described above. [^225Ac(DOTA)]^− was diluted with saline to a final concentration of 0.05 MBq/100 μL, and 100 μL were injected into each mouse. ^225Ac(NO3)3 (˜58 μL, 0.4 MBq) was diluted and injected in the same manner as [^225Ac(DOTA)]^−. One mouse that was to be euthanized at the 5 h time point in the [^225Ac(DOTA)]^− study died shortly after injection. In the same manner, one mouse that was to be euthanized at the 1 h time point in the ^225Ac(NO3)3 study died.
The in vivo stability [^225Ac(macropa)]^+ was examined by comparing its biodistribution to those of ^225Ac(NO3)3 and [^225Ac(DOTA)]^−. C57BL/6 mice were injected via tail vein with 10-50 kBq of each radiometal complex and were sacrificed after 15 min, 1 h, or 5 h. The amount of ^225Ac retained in each organ was quantified by gamma counting and reported as the percent of injected dose per gram of tissue (% ID/g). The results of these studies are compiled in Tables 1-3. Inadequate stability of an ^225Ac complex leading to the loss of radioisotope in vivo is manifested by the accumulation of ^225Ac in the liver, spleen, and bone of mice.^[11,12,32] […] The biodistribution profile of [^225Ac(macropa)]^+ (FIG. 3B) differs markedly from that of ^225Ac(NO3)3. […] Its biodistribution profile was similar to that of [^225Ac(DOTA)]^− (FIG. 3C), which has been previously shown to retain ^225Ac^3+ in vivo.^[7]

[1] = 15 min post i.v. injection, energy window A (60-120 keV)
[2] = 15 min post i.v. injection, energy window B (180-260 keV)
[3] = 15 min post i.v. injection, energy window C (400-480 keV)
[4] = 1 h post i.v. injection, energy window A (60-120 keV)
[5] = 1 h post i.v. injection, energy window B (180-260 keV)
[6] = 1 h post i.v. injection, energy window C (400-480 keV)
[7] = 5 h post i.v. injection, energy window A (60-120 keV)
[8] = 5 h post i.v. injection, energy window B (180-260 keV)

O=C([O-])CN1CCN(CC(=O)[O-])CCN(CC(=O)[O-])CCN(CC(=O)[O-])CC1.[225Ac+3] [[^225Ac(DOTA)]^−]
Organ distribution: bladder [1]: 48.2703 % ID/g | Organ distribution: blood [1]: 5.2881 % ID/g | Organ distribution: bone (femur + joint) [1]: 2.6298 % ID/g | Organ distribution: brain [1]: 0.2655 % ID/g | Organ distribution: feces [1]: 6.2730 % ID/g | Organ distribution: heart [1]: 2.3335 % ID/g | Organ distribution: kidneys [1]: 27.6566 % ID/g | Organ distribution: large intestines [1]: 2.3348 % ID/g | Organ distribution: liver [1]: 2.2520 % ID/g | Organ distribution: lungs [1]: 5.7556 % ID/g | Organ distribution: pancreas [1]: 1.5090 % ID/g | Organ distribution: small intestines [1]: 2.6370 % ID/g | Organ distribution: spleen [1]: 2.5905 % ID/g | Organ distribution: stomach [1]: 2.7440 % ID/g | Organ distribution: tail [1]: 8.8606 % ID/g | Organ distribution: thyroids [1]: −5.7725 % ID/g | Organ distribution: urine [1]: 1467.9186 % ID/g | Organ distribution: bladder [2]: 54.4696 % ID/g | Organ distribution: blood [2]: 5.6357 % ID/g | Organ distribution: bone (femur + joint) [2]: 3.0357 % ID/g | Organ distribution: brain [2]: 0.2735 % ID/g | Organ distribution: feces [2]: 1.0222 % ID/g | Organ distribution: heart [2]: 2.7276 % ID/g | Organ distribution: kidneys [2]: 28.0858 % ID/g | Organ distribution: large intestines [2]: 2.5365 % ID/g | Organ distribution: liver [2]: 2.1817 % ID/g | Organ distribution: lungs [2]: 6.0147 % ID/g | Organ distribution: pancreas [2]: 1.4929 % ID/g | Organ distribution: small intestines [2]: 2.5009 % ID/g | Organ distribution: spleen [2]: 2.9076 % ID/g | Organ distribution: stomach [2]: 2.7311 % ID/g | Organ distribution: tail [2]: 9.4746 % ID/g | Organ distribution: thyroids [2]: 1.6601 % ID/g | Organ distribution: urine [2]: 1635.4394 % ID/g | Organ distribution: bladder [3]: 76.0987 % ID/g | Organ distribution: blood [3]: 7.2941 % ID/g | Organ distribution: bone (femur + joint) [3]: 4.4224 % ID/g | Organ distribution: brain [3]: 0.1588 % ID/g | Organ distribution: feces [3]: 1.5693 % ID/g | Organ distribution: heart [3]: 2.5579 % ID/g | Organ distribution: kidneys [3]: 40.4489 % ID/g | Organ distribution: large intestines [3]: 3.8419 % ID/g | Organ distribution: liver [3]: 2.9046 % ID/g | Organ distribution: lungs [3]: 7.3872 % ID/g | Organ distribution: pancreas [3]: 1.0290 % ID/g | Organ distribution: small intestines [3]: 3.8916 % ID/g | Organ distribution: spleen [3]: 1.5598 % ID/g | Organ distribution: stomach [3]: 3.2425 % ID/g | Organ distribution: tail [3]: 13.4731 % ID/g | Organ distribution: thyroids [3]: −109.5394 % ID/g | Organ distribution: urine [3]: 2691.0615 % ID/g | Organ distribution: bladder [4]: 4.7351 % ID/g | Organ distribution: blood [4]: 0.1144 % ID/g | Organ distribution: bone (femur + joint) [4]: 0.4487 % ID/g | Organ distribution: brain [4]: 0.0224 % ID/g | Organ distribution: feces [4]: 0.2035 % ID/g | Organ distribution: heart [4]: 0.1012 % ID/g | Organ distribution: kidneys [4]: 1.4020 % ID/g | Organ distribution: large intestines [4]: 0.1229 % ID/g | Organ distribution: liver [4]: 0.2715 % ID/g | Organ distribution: lungs [4]: 0.1555 % ID/g | Organ distribution: pancreas [4]: 0.0743 % ID/g | Organ distribution: small intestines [4]: 1.7207 % ID/g | Organ distribution: spleen [4]: 0.0938 % ID/g | Organ distribution: stomach [4]: 0.1367 % ID/g | Organ distribution: tail [4]: 0.8091 % ID/g | Organ distribution: thyroids [4]: 2.3564 % ID/g | Organ distribution: urine [4]: 158.6102 % ID/g | Organ distribution: bladder [5]: 4.7141 % ID/g | Organ distribution: blood [5]: 0.1127 % ID/g | Organ distribution: bone (femur + joint) [5]: 0.4126 % ID/g | Organ distribution: brain [5]: 0.0248 % ID/g | Organ distribution: feces [5]: 0.2349 % ID/g | Organ distribution: heart [5]: 0.1378 % ID/g | Organ distribution: kidneys [5]: 1.2560 % ID/g | Organ distribution: large intestines [5]: 0.0813 % ID/g | Organ distribution: liver [5]: 0.2672 % ID/g | Organ distribution: lungs [5]: 0.1946 % ID/g | Organ distribution: pancreas [5]: 0.0746 % ID/g | Organ distribution: small intestines [5]: 1.8809 % ID/g | Organ distribution: spleen [5]: 0.0825 % ID/g | Organ distribution: stomach [5]: 0.1379 % ID/g | Organ distribution: tail [5]: 0.8973 % ID/g | Organ distribution: thyroids [5]: 2.6514 % ID/g | Organ distribution: urine [5]: 159.1628 % ID/g | Organ distribution: bladder [6]: 6.9149 % ID/g | Organ distribution: blood [6]: 0.1102 % ID/g | Organ distribution: bone (femur + joint) [6]: 0.5654 % ID/g | Organ distribution: brain [6]: 0.0380 % ID/g | Organ distribution: feces [6]: 0.4091 % ID/g | Organ distribution: heart [6]: 0.2857 % ID/g | Organ distribution: kidneys [6]: 1.4787 % ID/g | Organ distribution: large intestines [6]: 0.1381 % ID/g | Organ distribution: liver [6]: 0.2841 % ID/g | Organ distribution: lungs [6]: 0.2551 % ID/g | Organ distribution: pancreas [6]: 0.1730 % ID/g | Organ distribution: small intestines [6]: 2.0201 % ID/g | Organ distribution: spleen [6]: 0.2228 % ID/g | Organ distribution: stomach [6]: 0.1720 % ID/g | Organ distribution: tail [6]: 1.0280 % ID/g | Organ distribution: thyroids [6]: 3.5247 % ID/g | Organ distribution: urine [6]: 177.6788 % ID/g | Organ distribution: bladder [7]: 0.3551 % ID/g | Organ distribution: blood [7]: 0.0140 % ID/g | Organ distribution: bone (femur + joint) [7]: 0.2063 % ID/g | Organ distribution: brain [7]: 0.0213 % ID/g | Organ distribution: feces [7]: 5.5318 % ID/g | Organ distribution: heart [7]: 0.0664 % ID/g | Organ distribution: kidneys [7]: 0.6172 % ID/g | Organ distribution: large intestines [7]: 0.2026 % ID/g | Organ distribution: liver [7]: 0.1010 % ID/g | Organ distribution: lungs [7]: 0.0390 % ID/g | Organ distribution: pancreas [7]: 0.0677 % ID/g | Organ distribution: small intestines [7]: 0.0967 % ID/g | Organ distribution: spleen [7]: 0.1380 % ID/g | Organ distribution: stomach [7]: 0.0852 % ID/g | Organ distribution: tail [7]: 0.3057 % ID/g | Organ distribution: thyroids [7]: 3.6425 % ID/g | Organ distribution: urine [7]: 1.1612 % ID/g | Organ distribution: bladder [8]: 0.7521 % ID/g | Organ distribution: blood [8]: 0.0292 % ID/g | Organ distribution: bone (femur + joint) [8]: 0.1478 % ID/g | Organ distribution: brain [8]: 0.0513 % ID/g | Organ distribution: feces [8]: 3.3534 % ID/g | Organ distribution: heart [8]: 0.0879 % ID/g | Organ distribution: kidneys [8]: 0.6718 % ID/g | Organ distribution: large intestines [8]: 0.2527 % ID/g | Organ distribution: liver [8]: 0.2712 % ID/g | Organ distribution: lungs [8]: 0.1289 % ID/g | Organ distribution: pancreas [8]: 0.1266 % ID/g | Organ distribution: small intestines [8]: 0.2065 % ID/g | Organ distribution: spleen [8]: 0.0834 % ID/g | Organ distribution: stomach [8]: 0.1789 % ID/g | Organ distribution: tail [8]: 0.1634 % ID/g | Organ distribution: thyroids [8]: 16.2357 % ID/g | Organ distribution: urine [8]: 3.6967 % ID/g
